One molecule from ChEMBL document CHEMBL1151669, “Caparratriene, an active sesquiterpene hydrocarbon from Ocotea caparrapi” (J Nat Prod, 1996) can be followed below.

Assay [1] deals with CCRF-CEM. Briefly: Growth inhibition of human CEM cells after 24 hrs by trypan blue staining. It is filed as functional, cell-based.
In assay [2] the test system is CCRF-CEM. Briefly: Growth inhibition of human CEM cells incubated in presence of light after 24 hrs by trypan blue staining. It is filed as functional, cell-based.

The source made the active and inactive calls. No cut-off for these calls is given here.

Regarding `C/C=C(C)/C=C/C[C@H](C)CCC=C(C)C` [CAPARRATRIENE], half-maximal inhibition in the assay on CCRF-CEM [1] (IC50) required 3000 nM. Also, the outcome with CCRF-CEM [2] was Active.

A word on the IC50: it is the concentration needed to halve the response being measured.
